The values that follow come from patent publication US11001561B2, “Pyrimidinone derivatives as SHP2 antagonists” (MERCK PATENT GMBH, priority 2019, dated 2021).

Each structure is given as a SMILES string. Where two headings read alike, the source gives them in different places.

Series [1] relates to pERK1/2 in KYSE520 cells. Kind of series: p-Erk cellular assay in KYSE520 (Mesoscale). The series is classed as cell-based. As to conditions: read-out: pERK1/2 in Cell KYSE520 IC50. On the procedure: p-Erk Cellular Assay in KYSE520: The effect of SHP2 inhibitors on pERK level was assessed using phospho-specific antibody using Mesoscale quantification platform. For measuring change in pERK levels using mesoscale, 30,000 cells of KYSE520 cells were plated in 96-well tissue culture treated plate in 175 μl volume of media. After an overnight incubation at 37° C., various SHP2 inhibitors were added in different concentration to each well maintaining duplicate wells across plates and incubated with compounds for 2 h at 37° C. followed by a wash with ice cold PBS buffer. The cells were then lysed in lysis buffer and processed and analyzed for p-ERK/ERK as per manufacturer's instructions (Mesoscale discovery, cat No. […]-3).

Series [2] addresses Kv11.1 (hERG) ion channel (Homo sapiens (Human), UniProt Q12809). Kind of series: hERG patch clamp in Kv11.1 transfected HEK293 cells. The series is classed as cell-based. On the procedure:
Inhibition of the ion channel hErg (or Kv11.1) current causes QT interval prolongation resulting in potentially fatal ventricular tachyarrhythmia called Torsade de Pointes.
hERG ion channel activity was assessed using a patch clamp technique in stable Kv11.1 (hERG) transfected human embryonic kidney cell line (HEK293). Whole cell recordings were carried out with an automated patch clamp device Patchliner™ from Nanion Technologies, Munich following manufacturer recommendation. Different concentrations of the test compound or reference, quinidine, were applied to whole cells suspension and current was measured using a pulse pattern with fixed amplitudes.

Series [3] is described as follows: Pharmacokinetics in mouse (oral / intravenous). It is filed as in vivo. The note with it: female CD1 mice; for clearance / Vd: mouse; for Vd: read-out: Vd ss. The protocol: Female CD1 mice (N=3) received a single oral (gavage) or a single intravenous (bolus) injection of compound. […] Consecutive blood samples were taken sub-lingually under isofluorane inhalation from animals after 0.083 (IV), 0.25, 0.5, 1, 2, 4, 6 and 24 h and were further processed to obtain plasma. Samples were protein precipitated and analysed by LC/MS/MS.

Series [4] concerns the target Recombinant human SHP2 protein (2-593) (Homo sapiens (Human), UniProt Q06124). Kind of series: SPR binding assay. As to conditions: SPR, 25° C. The protocol:
The immobilization buffer contained 20 mM HEPES/NaOH (pH 7.4), 150 mM NaCl, 0.05% Tween 20. Inhibitors (stored as 10 mM stock solutions in 100% DMSO) were diluted in running buffer (20 mM HEPES/NaOH pH 7.4, 150 mM NaCl, 1 mM DTT, 5 mM MgCl2 0.1 mM EGTA, 0.05% Tween 20, 2% DMSO @25° C.) and analysed with a Biacore 4000 (Biacore AB, GE Healthcare Life Sciences, Uppsala, Sweden) using a 2-fold dilution series. The highest compound concentration varied according to the expected dissociation constant, but all compounds were tested at 10 different concentrations. Interaction analysis cycles were run at 30 μL/min and consisted of a 140 s sample injection followed by 600 s of buffer flow (dissociation phase). All sensograms were evaluated by first subtracting the binding response recorded from the control surface (reference spot), followed by subtracting a buffer blank injection. To determine kinetic rate constants, data sets were fitted to a simple 1:1 interaction model including a term for mass transport using numerical integration and nonlinear curve fitting. Equilibrium analysis was performed by fitting the response at the end of the association phase to a single-site binding isotherm.

Series [5] deals with Kyse-520 xenografts. Kind of series: Kyse-520 xenograft (EGFR amplified esophageal cancer). The note with it: H2D Rag2 mice, 0.8, 2.5 or 8 mg/kg daily oral gavage. An excerpt: H2D Rag2 mice were inoculated with 5 million KYSE-520 cells mixed with matrigel.
In vivo efficacy of compound 74a in an EGFR amplified setting was investigated in Kyse-520 xenografts. H2D Rag2 mice were inoculated with 5 million KYSE-520 cells mixed with matrigel.

The target in series [6] is Full length SHP2 protein (Recombinant Human SHP-2) (Homo sapiens (Human), UniProt Q06124). Kind of series: SHP2 biochemical assay (DiFMUP substrate, activating peptide IRSI_2pY).
Protocol: The inhibition of SHP2 by compounds of the invention was monitored using the surrogate substrate DiFMUP after protein activation by a peptide bearing two appropriately spaced phosphotyrosine. […] The generation of the DiFMU product by activated SHP2 was monitored through Fluorescence measurement with a PerkinElmer Envision reader. The inhibitor dose response curves were analyzed with Genedata Screener.
Series [7] has as its target auto-activated mutant protein SHP2 E76K (Homo sapiens (Human), UniProt Q06124, E76K). The series can be described thus: SHP2 active mutant E76K biochemical assay with and without activating peptide.
Protocol: The inhibition of SHP2 by compounds of the invention was monitored using the surrogate substrate DiFMUP after protein activation by a peptide bearing two appropriately spaced phosphotyrosine. Full length SHP2 protein (Recombinant HumanSHP-2, E. coli derived Ser2Arg593, N-terminal 6His tag from R&D systems; 0.0.24 nM) was incubated with activating peptide, IRSI_2pY (New England Peptide, 140 nM) and DiFMUP (molecular probes, 80 uM) at RT in buffer (HEPES pH 7.2 60 mM, DDT 5 mM, KCl 75 mM, NaCl 75 mM, EDTA 1 mM, Tween 20 0.05%) in presence of compound (10 concentrations range, top concentration 50 μM) for 60 min. The generation of the DiFMU product by activated SHP2 was monitored through Fluorescence measurement with a PerkinElmer Envision reader. The inhibitor dose response curves were analyzed with Genedata Screener.
The subject of series [8] is MCP-1 production in U937 cells. The series can be described thus: Cytokine release assay in U937 cells (MCP-1 AlphaLISA, IL-6 stimulation). It is filed as cell-based. As to conditions: Homo sapiens, U-937; U937 cells stimulated with IL-6 (50 ng/mL) overnight. The protocol: Selected compounds were tested in a cytokine release assay in monocytic cells (U937) to test their anti-inflammatory properties. Cells were plated in a 96-well cell culture plate using serum-free media. The cells were treated with indicated concentrations of SHP-2 inhibitors for 30 minutes followed by overnight stimulation with recombinant IL-6 (50 ng/mL). The MCP-1 production was measured in the culture supernatant using a MCP-1 AlphaLISA kit (Perkin Elmer).
(In Alpha technology, singlet oxygen from a donor bead excites a nearby acceptor bead.)

Setting [9] is: activating peptide IRSI_2pY 140 nM, DiFMUP, 60 min, read-out: SHP-2 biochemical assay IC50.
Where [10] appears, read: SHP-2 IC50 (nM) peptide, wild-type SHP-2, with activating peptide.
The mark [11] stands for this setting: SHP-2 biochemical assay IC50 (μM), activating peptide IRSI_2pY 140 nM, DiFMUP, 60 min.
[12] abbreviates: with activating peptide IRSI_2pY 140 nM, read-out: SHP-2 E76Z IC50 (nM) peptide.
[13] abbreviates: without activating peptide, read-out: SHP-2 E76Z IC50 (nM) No peptide.
[14] abbreviates: SHP-2 E76Z IC50 (nM) No peptide, without activating peptide.
The mark [15] stands for this setting: SHP-2 E76Z IC50 (nM) peptide, with activating peptide IRSI_2pY 140 nM.

Chain of auto-activated mutant protein SHP2 E76K (Q06124 whole entry E76K): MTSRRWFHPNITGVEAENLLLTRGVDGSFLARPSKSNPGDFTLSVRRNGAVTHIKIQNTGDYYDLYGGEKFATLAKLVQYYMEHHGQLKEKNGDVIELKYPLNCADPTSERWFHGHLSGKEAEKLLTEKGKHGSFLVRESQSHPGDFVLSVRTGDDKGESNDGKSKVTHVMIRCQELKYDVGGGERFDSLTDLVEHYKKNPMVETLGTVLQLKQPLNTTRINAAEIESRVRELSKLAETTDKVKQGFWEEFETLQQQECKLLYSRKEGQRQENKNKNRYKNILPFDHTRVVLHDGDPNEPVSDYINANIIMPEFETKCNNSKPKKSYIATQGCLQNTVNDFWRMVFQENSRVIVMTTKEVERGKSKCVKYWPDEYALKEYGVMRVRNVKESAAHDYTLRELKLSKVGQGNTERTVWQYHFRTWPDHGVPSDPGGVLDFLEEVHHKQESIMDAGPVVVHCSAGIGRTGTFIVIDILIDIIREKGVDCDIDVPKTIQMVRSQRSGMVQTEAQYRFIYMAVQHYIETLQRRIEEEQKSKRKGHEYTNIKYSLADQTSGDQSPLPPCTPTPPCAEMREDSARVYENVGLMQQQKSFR
Chain of Kv11.1 (hERG) ion channel (Q12809 whole entry): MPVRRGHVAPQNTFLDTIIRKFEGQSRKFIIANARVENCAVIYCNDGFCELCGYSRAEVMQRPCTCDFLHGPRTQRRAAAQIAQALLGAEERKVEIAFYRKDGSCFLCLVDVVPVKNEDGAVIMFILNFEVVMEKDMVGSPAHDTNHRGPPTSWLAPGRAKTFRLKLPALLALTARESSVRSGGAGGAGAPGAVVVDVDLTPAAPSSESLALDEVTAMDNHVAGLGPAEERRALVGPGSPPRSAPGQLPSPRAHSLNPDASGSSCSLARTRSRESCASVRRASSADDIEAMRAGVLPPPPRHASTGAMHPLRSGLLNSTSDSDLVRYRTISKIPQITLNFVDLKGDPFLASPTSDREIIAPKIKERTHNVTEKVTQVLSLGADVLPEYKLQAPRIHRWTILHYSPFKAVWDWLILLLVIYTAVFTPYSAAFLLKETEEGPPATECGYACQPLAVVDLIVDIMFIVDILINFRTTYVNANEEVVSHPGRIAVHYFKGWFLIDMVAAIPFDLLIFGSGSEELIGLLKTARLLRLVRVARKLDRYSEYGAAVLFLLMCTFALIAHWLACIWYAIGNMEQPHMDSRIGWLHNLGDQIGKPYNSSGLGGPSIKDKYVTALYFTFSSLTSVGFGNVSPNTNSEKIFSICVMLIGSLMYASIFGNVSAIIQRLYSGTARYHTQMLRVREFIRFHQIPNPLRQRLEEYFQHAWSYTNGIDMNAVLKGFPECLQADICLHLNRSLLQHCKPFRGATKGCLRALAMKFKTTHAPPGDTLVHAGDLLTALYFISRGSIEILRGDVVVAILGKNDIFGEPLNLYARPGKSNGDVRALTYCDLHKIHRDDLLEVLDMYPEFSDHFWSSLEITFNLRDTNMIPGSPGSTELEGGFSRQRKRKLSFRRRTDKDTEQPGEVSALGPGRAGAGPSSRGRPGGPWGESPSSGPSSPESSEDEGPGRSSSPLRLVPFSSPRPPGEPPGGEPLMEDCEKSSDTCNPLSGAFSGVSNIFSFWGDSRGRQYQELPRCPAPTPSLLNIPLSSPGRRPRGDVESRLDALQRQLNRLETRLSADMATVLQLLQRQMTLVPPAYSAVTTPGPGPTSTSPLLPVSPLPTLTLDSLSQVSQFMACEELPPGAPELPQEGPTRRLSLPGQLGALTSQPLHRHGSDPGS
Chain of Full length SHP2 protein (Recombinant Human SHP-2) (Q06124 2-593): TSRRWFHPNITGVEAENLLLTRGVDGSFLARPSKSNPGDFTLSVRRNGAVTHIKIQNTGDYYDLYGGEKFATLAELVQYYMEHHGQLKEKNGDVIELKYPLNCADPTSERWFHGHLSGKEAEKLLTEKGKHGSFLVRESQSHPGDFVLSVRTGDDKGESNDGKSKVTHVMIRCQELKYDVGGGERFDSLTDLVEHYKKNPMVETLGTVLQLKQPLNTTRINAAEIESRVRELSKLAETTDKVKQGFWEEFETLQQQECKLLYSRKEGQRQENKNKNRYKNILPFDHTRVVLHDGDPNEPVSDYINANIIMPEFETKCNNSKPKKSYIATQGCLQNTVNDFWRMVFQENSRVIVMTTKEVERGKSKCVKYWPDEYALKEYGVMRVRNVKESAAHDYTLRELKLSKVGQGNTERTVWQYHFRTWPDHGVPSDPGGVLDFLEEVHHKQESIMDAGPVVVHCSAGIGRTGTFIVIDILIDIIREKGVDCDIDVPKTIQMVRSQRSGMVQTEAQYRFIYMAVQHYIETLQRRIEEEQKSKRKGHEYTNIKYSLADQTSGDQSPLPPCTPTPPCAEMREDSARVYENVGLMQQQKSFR
Chain of Recombinant human SHP2 protein (2-593) (Q06124 2-593): as above

In general, Ki refers to the equilibrium dissociation constant of an inhibitor or competing ligand from its target. Broadly, the koff is the first-order rate constant of dissociation. In general, residence time refers to how long the partners stay bound on average. Take `Cc1c(N2CCC3(CC2)Cc2ccccc2[C@H]3N)nc(C)n(-c2cccc(Cl)c2Cl)c1=O` [Compound 74a, (3M)-6-[(1S)-1-amino-1,3-dihydrospiro[indene-2,4′-piperidin]-1′-yl]-3-(2,3-dichlorophenyl)-2,5-dimethyl-3,4-dihydropyrimidin-4-one]: the IC50 in series [1] (2 h) turned out to be 2 nM. Also, in series [2], the inhibitory constant (Ki) was found to be 1200 nM; the “Split between hErg and cell activity Ki (patch Clamp)/IC50 (KYSE)” value (“Split between hErg and cell activity Ki” for short) was 704. In series [3], this compound showed a Fz of 100%. Besides, in series [3] (plasma, intravenous), the clearance was 8.33 mL/min/kg and the Vd is 5.1 L/kg. Also, in series [4], the koff was under 0.0001 s⁻¹ and the residence time is over 160 min. For the same compound, in series [5], the tolerability result was “All doses were well tolerated”.
Regarding `Cc1c(N2CCC3(CC2)Cc2ccccc2[C@H]3N)nc(N)n(-c2cccc(Cl)c2Cl)c1=O` [Compound 117, 2-amino-6-[(3S)-3-amino-1,3-dihydrospiro[indene-2,4′-piperidin]-1′-yl]-3-(2,3-dichlorophenyl)-5-methyl-3,4-dihydropyrimidin-4-one], the IC50 turned out to be 15 nM in series [6] (setting [9]) and 6 nM in series [1] (Homo sapiens, KYSE-520, 2 h). This compound came in with a Ki in series [2] of 2500 nM. The “Split between hErg and cell activity Ki” value in series [2] (human) came to 417.
Consider `[2H]C([2H])([2H])c1c(N2CCC3(CC2)Cc2ccccc2[C@H]3N)nc(C)n(-c2cccc(Cl)c2Cl)c1=O` [Compound 106, 6-[(1S)-1-amino-1,3-dihydrospiro[indene-2,4′-piperidin]-1′-yl]-3-(2,3-dichlorophenyl)-5-(2H3)methyl-2-methyl-3,4-dihydropyrimidin-4-one], for which the IC50 came out at 1.7 nM in series [6] (setting [10]); 6 nM in series [6] (setting [11]); 10 nM in series [1] (Homo sapiens, KYSE-520, 2 h); 6.4 nM in series [7] (setting [12]); 3.5 nM in series [7] (setting [13]).
`Cc1nc(N2CCC3(CC2)CO[C@@H](C)[C@H]3N)cc(=O)n1-c1cccc(Cl)c1Cl` (single isomer, unassigned) [Compound 3b] came in with a Fz in series [3] of 85%. Further, in series [3] (plasma, intravenous), the clearance was 8 mL/min/kg and the Vd turned out to be 2.77 L/kg.
Turning to `Cc1c(N2CCC3(CC2)Oc2ccccc2[C@H]3N)nc(C)n(-c2cccc(Cl)c2Cl)c1=O` (single isomer, unassigned) [Compound 81b], the IC50 in series [6] (setting [10]) worked out at 0.3 nM; in series [6] (setting [9]) it was 1.4 nM; in series [1] (Homo sapiens, KYSE-520, 2 h) it was 6.6 nM; in series [7] (setting [14]), 0.5 nM; in series [7] (setting [15]), 1.1 nM. This compound also came in with a Fz in series [3] of 48%. Besides, the clearance in series [3] (plasma, intravenous) was 2.5 mL/min/kg. The Vd in series [3] (plasma, intravenous) came to 0.68 L/kg.
For the compound `Cc1c(N2CCC3(CC2)C[C@@H](C)C[C@H]3N)nc(C)n(-c2cccc(Cl)c2Cl)c1=O` [Compound 77, (3M)-6-[(1R,3R)-1-amino-3-methyl-8-azaspiro[4.5]decan-8-yl]-3-(2,3-dichlorophenyl)-2,5-dimethyl-3,4-dihydropyrimidin-4-one], the IC50 is 6 nM in series [6] (setting [11]); 74 nM in series [1] (Homo sapiens, KYSE-520, 2 h); 731 nM in series [8].
On to `Cc1c(N2CCC3(CC2)Cc2ncccc2[C@H]3N)nc(C)n(-c2cccc(Cl)c2Cl)c1=O` (single isomer, unassigned) [Compound 66a], for which the IC50 in series [6] (setting [10]) amounted to 48 nM; in series [6] (setting [9]), 73 nM; in series [7] (setting [12]), 200 nM; in series [7] (setting [13]), 97 nM.
Regarding `Cc1c(N2CCC3(CC2)Cc2ncccc2[C@H]3N)nc(C)n(-c2cccc(Cl)c2Cl)c1=O` (single isomer, unassigned) [Compound 66b], the IC50 in series [6] (setting [10]) was 0.7 nM; in series [6] (setting [11]), 1 nM; in series [1] (Homo sapiens, KYSE-520, 2 h) it was 5 nM; in series [7] (setting [14]) it was 1.9 nM; in series [7] (setting [15]), 1.9 nM. The Ki in series [2] came out at 7500 nM. Also, in series [2] (human), the “Split between hErg and cell activity Ki” value turned out to be 580. In series [3], this compound displayed a Fz of 100%. Further, the clearance in series [3] (plasma, intravenous) is 8.33 mL/min/kg. Moreover, the Vd in series [3] (plasma, intravenous) amounted to 1.96 L/kg.
As to `CC1(N)CCN(c2cnc(-c3cccc(Cl)c3Cl)c(N)n2)CC1` [SHP-099, reference compound], in series [3] (in vivo), the clearance was 95 mL/min/kg and the Vd turned out to be 5 L/kg.
In the case of `Cc1c(N2CCC3(CC2)Cc2ccccc2[C@H]3N)nc(C)n(-c2ccc(F)c(Cl)c2Cl)c1=O` [Compound 109, 6-((1S)-1-amino-1,3-dihydrospiro[indene-2,4′-piperidin]-1′-yl]-3-(2,3-dichloro-4-fluorophenyl)-2,5-dimethyl-3,4-dihydropyrimidin-4-one], the IC50 in series [6] (setting [9]) turned out to be 2 nM; in series [1] (Homo sapiens, KYSE-520, 2 h), 4 nM.
In the case of `Cc1c(N2CCC3(CC2)Cc2ccccc2[C@H]3N)nc(C)n(-c2cccc(Cl)c2Cl)c1=O` (atropisomer, axis not shown) [Compound 74b, (3P)-6-[(1S)-1-amino-1,3-dihydrospiro[indene-2,4′-piperidin]-1′-yl]-3-(2,3-dichlorophenyl)-2,5-dimethyl-3,4-dihydropyrimidin-4-one], the IC50 in series [6] (setting [11]) was determined as 26 nM; in series [1] (2 h), 624 nM.
In the same order, the values of `[2H]C([2H])([2H])c1c(N2CCC3(CC2)CO[C@@H](C)[C@H]3N)nc(C)n(-c2cccc(Cl)c2Cl)c1=O` [Compound 63, 6-[(3S,4S)-4-amino-3-methyl-2-oxa-8-azaspiro[4.5]decan-8-yl]-3-(2,3-dichlorophenyl)-5-(^2H3)methyl-2-methyl-3,4-dihydropyrimidin-4-one] are 39 nM and 467 nM.
Turning to `Cc1c(F)ccc(-n2c(C)nc(N3CCC4(CC3)Cc3ccccc3[C@H]4N)c(C)c2=O)c1Cl` [Compound 110, 6-[(1S)-1-amino-1,3-dihydrospiro[indene-2,4′-piperidin]-1′-yl]-3-(2-chloro-4-fluoro-3-methylphenyl)-2,5-dimethyl-3,4-dihydropyrimidin-4-one], the IC50 stood at 2 nM in series [6] (setting [9]) and 7 nM in series [1] (Homo sapiens, KYSE-520, 2 h).
Turning to `Cc1nc(N2CCC3(CC2)CO[C@@H](C)[C@H]3N)c(CO)nc1-c1cccc(Cl)c1Cl` [RMC-4550, reference compound], in series [2], the affinity corresponds to a Ki of 600 nM. This compound also registered a Fz in series [3] of 86%. Besides, the Vd in series [3] (in vivo) turned out to be 6.1 L/kg. Besides, the clearance in series [3] (plasma, intravenous) is 20 mL/min/kg.
